Earlier results as cited in patent US8961477B2, “Delivery of immune response modifier compounds” (3M Innovative Properties Company, priority 2003, dated 2015).

Experiments:
[1] = delivered systemically
TLR 7 = biological target: T1, TLR 7 (Homo sapiens, UniProt Q9NYK1); conditions: statement in words, no data given
T1 construct: expressed in transfected cells
T1 sequence (Q9NYK1 27-1049): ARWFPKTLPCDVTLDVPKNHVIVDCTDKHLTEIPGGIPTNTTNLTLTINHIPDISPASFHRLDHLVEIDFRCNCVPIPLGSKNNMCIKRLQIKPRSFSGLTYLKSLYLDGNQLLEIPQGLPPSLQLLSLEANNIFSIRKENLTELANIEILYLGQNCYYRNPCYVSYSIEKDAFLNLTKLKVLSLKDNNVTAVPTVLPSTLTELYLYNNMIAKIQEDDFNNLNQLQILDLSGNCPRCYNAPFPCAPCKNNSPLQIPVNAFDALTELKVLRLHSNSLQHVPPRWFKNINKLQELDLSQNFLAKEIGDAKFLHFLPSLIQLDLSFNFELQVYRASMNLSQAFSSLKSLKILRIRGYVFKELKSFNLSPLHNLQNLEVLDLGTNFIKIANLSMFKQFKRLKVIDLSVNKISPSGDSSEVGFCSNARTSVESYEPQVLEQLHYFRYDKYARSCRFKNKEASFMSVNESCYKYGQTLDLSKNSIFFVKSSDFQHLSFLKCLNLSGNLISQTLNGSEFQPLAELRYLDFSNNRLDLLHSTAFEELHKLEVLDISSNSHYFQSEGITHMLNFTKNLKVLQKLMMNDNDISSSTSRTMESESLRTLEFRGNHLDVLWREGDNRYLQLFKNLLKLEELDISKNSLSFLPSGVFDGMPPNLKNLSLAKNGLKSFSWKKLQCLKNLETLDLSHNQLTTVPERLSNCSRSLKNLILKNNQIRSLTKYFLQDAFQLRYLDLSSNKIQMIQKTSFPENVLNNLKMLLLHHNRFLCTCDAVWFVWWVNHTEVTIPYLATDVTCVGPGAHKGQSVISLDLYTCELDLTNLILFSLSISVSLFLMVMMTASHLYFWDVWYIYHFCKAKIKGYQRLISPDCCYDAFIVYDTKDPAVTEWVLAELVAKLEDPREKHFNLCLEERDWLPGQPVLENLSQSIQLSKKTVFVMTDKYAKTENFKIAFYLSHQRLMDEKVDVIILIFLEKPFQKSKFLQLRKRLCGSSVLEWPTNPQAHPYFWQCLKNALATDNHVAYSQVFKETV

TLR 6 = biological target: T2, TLR 6 (Homo sapiens, UniProt Q9Y2C9); conditions: statement in words, no data given
T2 construct: expressed in transfected cells
T2 sequence (Q9Y2C9 32-796): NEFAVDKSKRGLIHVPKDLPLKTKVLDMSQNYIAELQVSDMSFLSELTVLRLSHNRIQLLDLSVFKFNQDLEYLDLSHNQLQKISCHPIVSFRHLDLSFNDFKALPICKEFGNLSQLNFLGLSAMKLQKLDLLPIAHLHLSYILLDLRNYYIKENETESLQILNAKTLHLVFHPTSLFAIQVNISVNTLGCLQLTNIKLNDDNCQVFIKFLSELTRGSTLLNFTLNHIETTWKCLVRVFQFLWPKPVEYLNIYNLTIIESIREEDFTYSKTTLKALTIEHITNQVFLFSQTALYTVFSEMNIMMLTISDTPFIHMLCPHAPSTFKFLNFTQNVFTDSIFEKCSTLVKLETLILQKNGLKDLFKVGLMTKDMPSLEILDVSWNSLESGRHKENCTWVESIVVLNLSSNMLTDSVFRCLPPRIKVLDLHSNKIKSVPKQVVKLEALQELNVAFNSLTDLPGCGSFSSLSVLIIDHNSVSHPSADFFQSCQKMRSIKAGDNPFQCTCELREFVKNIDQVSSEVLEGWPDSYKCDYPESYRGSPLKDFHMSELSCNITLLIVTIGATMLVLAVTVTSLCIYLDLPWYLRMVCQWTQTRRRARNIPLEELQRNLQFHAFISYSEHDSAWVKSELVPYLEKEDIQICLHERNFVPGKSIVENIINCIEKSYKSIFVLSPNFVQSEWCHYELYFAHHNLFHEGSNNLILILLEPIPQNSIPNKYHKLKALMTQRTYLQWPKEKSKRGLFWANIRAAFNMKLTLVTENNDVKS

TLR 8 = biological target: T3, TLR 8 (Homo sapiens, UniProt Q9NR97); conditions: statement in words, no data given
T3 construct: expressed in transfected cells
T3 sequence (Q9NR97 27-1041): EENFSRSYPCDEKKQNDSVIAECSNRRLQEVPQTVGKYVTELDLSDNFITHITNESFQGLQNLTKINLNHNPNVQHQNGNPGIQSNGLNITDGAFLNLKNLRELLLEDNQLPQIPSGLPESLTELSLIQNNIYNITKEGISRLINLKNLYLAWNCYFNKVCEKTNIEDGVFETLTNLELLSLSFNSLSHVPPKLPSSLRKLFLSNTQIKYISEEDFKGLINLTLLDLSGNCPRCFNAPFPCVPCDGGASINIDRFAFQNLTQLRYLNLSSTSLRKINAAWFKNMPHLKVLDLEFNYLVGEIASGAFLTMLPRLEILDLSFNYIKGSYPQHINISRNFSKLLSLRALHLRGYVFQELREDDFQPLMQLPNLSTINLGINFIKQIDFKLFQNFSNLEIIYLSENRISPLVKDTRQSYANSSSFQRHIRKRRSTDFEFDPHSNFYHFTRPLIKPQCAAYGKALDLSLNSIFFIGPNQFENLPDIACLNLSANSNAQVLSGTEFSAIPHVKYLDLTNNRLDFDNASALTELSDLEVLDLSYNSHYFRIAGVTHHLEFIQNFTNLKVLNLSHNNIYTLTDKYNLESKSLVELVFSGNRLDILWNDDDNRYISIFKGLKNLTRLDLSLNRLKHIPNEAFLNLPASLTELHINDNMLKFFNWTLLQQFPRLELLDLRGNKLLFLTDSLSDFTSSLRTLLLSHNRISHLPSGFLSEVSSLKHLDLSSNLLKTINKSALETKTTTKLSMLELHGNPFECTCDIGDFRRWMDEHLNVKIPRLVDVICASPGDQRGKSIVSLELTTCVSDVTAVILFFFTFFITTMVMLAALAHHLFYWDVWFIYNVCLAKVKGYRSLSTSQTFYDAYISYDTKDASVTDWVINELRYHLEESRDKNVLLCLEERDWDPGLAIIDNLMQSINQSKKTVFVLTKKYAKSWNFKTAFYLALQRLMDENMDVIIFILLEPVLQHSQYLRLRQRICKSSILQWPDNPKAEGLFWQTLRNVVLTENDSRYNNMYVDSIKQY

## CC(C)(O)Cn1cnc2c(N)nc3ccccc3c21 [4-amino-α,α-dimethyl-1H-imidazo[4,5-c]quinoline-1-ethanol]
[1]
  CNS effect compared to imiquimod: much lower CNS effect
TLR 7
  TLR 7 agonist activity: predominantly a TLR 7 agonist
TLR 6
  TLR 6 activity: TLR 6 activity
TLR 8
  TLR 8 agonist activity: not a substantial TLR 8 agonist

## CCOCc1nc2c(N)nc3c(c2n1CC(C)(C)O)CCCC3 [4-amino-2-(ethoxymethyl)-α,α-dimethyl-6,7,8,9-tetrahydro-1H-imidazo[4,5-c]quinoline-1-ethanol]
TLR 7
  TLR 7 agonist activity: TLR 7 and TLR 8 agonist
TLR 8
  TLR 8 agonist activity: TLR 7 and TLR 8 agonist
